In US20220249435A1, “Applications of Butyrolactone-I in Preparing Medicine for Preventing Neuroinflammation and/or Memory and Cognitive Disorders” (priority 2021, published 2022):

Tests used:
Type in all cases: in vivo
AChE = AChE activity in brain tissue of zebrafish; settings: food with 25, 50, 100 mg/kg for 20 days; AlCl3 intraperitoneally; brain supernatant; FIG. 3B
Description: (§1) 75 zebrafish (3.0±0.4 cm) are randomly classified into control group, AlCl3 model group and 3 experimental groups with 15 zebrafish in each group, zebrafish in the experimental group are fed with food with butyrolactone-I content of 25 mg/kg, 50 mg/kg and 100 mg/kg for 20 days. zebrafish in control group and model group are fed the same amount of normal food respectively. 20 days later, after anesthesia, zebrafish in model group and experimental group are injected with AlCl3 solution (4.2 mg/mL, 5μL, pH=5.0±0.2) intraperitoneally, while zebrafish in the control group are injected with the same amount of normal saline. Memory test is performed in T maze 24 hours after injection.
(§2) 24 hours after the behavior test, the fish are euthanized, and every five fish in each group is a sample. The brain, surrounding tissues and intestines are collected and stored in a refrigerator at −80° C. All samples (except intestinal tract) are homogenized in phosphate buffer solution for further analysis. Centrifuging is conducted at 4° C. for 15 min at 1500 r/min, and the supernatant is collected. The changes of GSH level and AChE activity of tissue biomarkers are detected by using brain supernatant of zebrafish. […] According to OD value, the regression equation of IL-1β and TNF-α standard curves is calculated, and the logistic curve (4 parameters each) is used as a fitting model. […]

TNF-α = experiment: Level of inflammatory factor TNF-α in brain tissues of zebrafish; settings: AlCl3 model, FIGS. 3E-3F
Description: as §1, §2

GSH = GSH level in brain tissue of zebrafish; settings: food with 25, 50, 100 mg/kg for 20 days; AlCl3 intraperitoneally; brain supernatant; FIG. 3A
Description: as §1, §2

[1] = system: zebrafish intestinal flora; experiment: Intestinal flora of zebrafish by 16S V3-V4 sequencing
Description: as §1
(§3) 24 hours after the behavior test, the fish are euthanized, and every five fish in each group is a sample. The brain, surrounding tissues and intestines are collected and stored in a refrigerator at −80° C. All samples (except intestinal tract) are homogenized in phosphate buffer solution for further analysis. Centrifuging is conducted at 4° C. for 15 min at 1500 r/min, and the supernatant is collected. The changes of GSH level and AChE activity of tissue biomarkers are detected by using brain supernatant of zebrafish. In addition, brain samples and supernatant of peripheral tissues of zebrafish are used to determine the levels of IL-1β and TNF-α. The results are expressed by the activity of AChE per gram of protein and the amount of glutathione per gram of protein. According to OD value, the regression equation of IL-1β and TNF-α standard curves is calculated, and the logistic curve (4 parameters each) is used as a fitting model.
Genomic DNA is extracted from 15 intestinal samples by proteinase K cleavage method, and sent to TinyGene Bio-Tech (ShangHai) Co., Ltd. for sequencing. The selected target gene is 16S V3-V4. According to the requirements of illumina high-throughput sequencing, two-way sequencing is carried out, and the target region and the fusion primer with “5′ linker-barcode-sequencing primer-specific primer-3′” are designed. The fusion primer comprises the following primers: […]
The library is constructed by a two-step PCR amplification method. First, specific primers (hereinafter described as inner primers) are used to amplify the target fragments, and then gel recovery is carried out on the target fragments. Then, the recovered products are used as templates for secondary PCR amplification (hereinafter described as outer primers for amplification). The purpose of amplification is to add the linker, sequencing primer and barcode needed by illumina platform sequencing to both ends of the target fragment.
AxyPrepDNA gel recovery kit is used for recovery, FTC-3000™ real-time PCR is used for real-time fluorescence quantification, and then Illumina high-throughput sequencing and bioinformatics analysis are performed. The length of the sequence is 450 bp, and the sequencing result is the original data, and quality of the sequence is evaluated and optimized. Trimmomatic is used for sequence filtering and FLASH for jointing. Then ambiguity, homology and some chimeras generated in PCR are screened by motherur V. 1.39.5, and the optimized sequence for subsequent clustering OTU (operational taxonomic unit) and species information analysis is obtained. Using the software USEARCH, the jointed sequences are clustered into OTU (at 97% similarity level) for later analysis.
VENN diagram may be used to count the number of common and unique OTU in multiple samples, and may intuitively show the similarity and overlap of OTU numbers of environmental samples. Usually the OTU sample table with a similar level of 97% is selected for analysis.
Alpha diversity analysis reflects the richness and diversity of communities in the sample, using motheru (http://www.mothur.org/wiki/Schloss SOP#Alpha diversity) to calculate shannon, simpson, chao and ace indices, and using R (3.4.1) language tool to make charts. […]

zebrafish = experiment: T maze memory test in AlCl3-injected zebrafish
Description: Adult wild AB zebrafish (male: female ratio is 50%: 50%) with good growth of about 6-8 months are acclimated in a 50 L water tank for 2 weeks, the temperature is 25±2° C., the light-dark cycle is 14 hours: 10 hours, and Artemia larvae are fed at 9 am and 2 pm respectively.
as §1
4 days before intraperitoneal injection, 6 fish are randomly selected from each group, and each day, they are trained separately in T maze for 5 minutes to find the eutrophic EC area. […] After 4 days of training, on the 5th day (24 hours after intraperitoneal injection), the behavior of the trained fish is tested in T maze. If the fish enters EC area and stays for more than 30 s, a valid incubation period is recorded. […] The behavioral test is conducted between 10 am and 1 pm. The Microsoft LifeCam Studio 1080p HD camera and powersoft software (Powersoft Co., Ltd., Hong Kong, China) are used to record videos. Supersys software is used to analyze the latent time (s), average swimming speed (cm/s) and the times of entering the EC zone for the first time.

IL-1β = experiment: Level of inflammatory factor IL-1β in brain and peripheral tissues of zebrafish
Description: as §1, §3
Graphpad Prism 8.0 is used for mapping, and One-way ANOVA and Dunnett's post hoc test are used to evaluate the differences between model group and control group, experimental group and model group.

[2] = phylum level, oral, AlCl3 model

With `COC(=O)[C@@]1(Cc2ccc(O)c(CC=C(C)C)c2)OC(=O)C(O)=C1c1ccc(O)cc1` [butyrolactone-I] the “AChE activity in brain tissue of zebrafish” value (AChE) was “inhibit AChE activity”, the “level of inflammatory factor TNF-α in brain tissues of zebrafish” value (TNF-α) was “reduce the level” and the “GSH level in brain tissue of zebrafish” value (GSH) was “increase GSH level in brain tissue of zebrafish in a dose-dependent manner”. The “abundance of Alpinimonas” value ([1]; genus level, oral, AlCl3 model) was “down-regulate”, the “abundance of Bacillus” value ([1]; genus level, oral, AlCl3 model) was “up-regulate” and the “abundance of Bosea” value ([1]; genus level, oral, AlCl3 model) was “down-regulate”. For the same molecule, the “abundance of Cetobacterium” value ([1]; genus level, oral, AlCl3 model) was “down-regulate”, the “abundance of Mycobacterium” value ([1]; genus level, oral, AlCl3 model) was “down-regulate” and the “abundance of Phreatobacter” value ([1]; genus level, oral, AlCl3 model) was “down-regulate”. The “abundance of Singulisphaera” value ([1]; genus level, oral, AlCl3 model) was “down-regulate”, the “disturbance of zebrafish intestinal flora caused by aluminum trichloride” value ([1]; overall conclusion) was “regulate the disturbance” and the “abundance of Chlamydiae” value [1, 2] was “down-regulate”. For the same molecule, the “abundance of Chloroflexi” value [1, 2] was “down-regulate”, the “abundance of Fusobacterium” value [1, 2] was “down-regulate” and the “abundance of Planctomycetes” value [1, 2] was “down-regulate”. The “abundance of Phylum Firmicutes” value ([1]; phylum level, oral, AlCl3 model, FIGS. 4A-4B) was “up-regulate”, the “latent time for zebrafish to find the EC zone” value (zebrafish; food with 25, 50, 100 mg/kg butyrolactone-I for 20 days, AlCl3 intraperitoneally, T maze 24 hours after injection, FIG. 1A) was “shorten the latent time” and the “average swimming speed of zebrafish” value (zebrafish; food with 25, 50, 100 mg/kg for 20 days, AlCl3 intraperitoneally, T maze, FIG. 1B) was “increase the average swimming speed”. The “number of times that zebrafish enter the eutrophic EC zone” value (zebrafish; food with 25, 50, 100 mg/kg for 20 days, AlCl3 intraperitoneally, T maze, FIG. 1C) was “add the number of times”, the “lingering time of zebrafish in EC area” value (zebrafish; food with 25, 50, 100 mg/kg for 20 days, AlCl3 intraperitoneally, T maze, FIGS. 2A-2E) was “prolong the lingering time” and the “memory and cognitive disorder of zebrafish caused by aluminum trichloride” value (zebrafish; overall conclusion of T maze test) was “obviously improve”. For the same molecule, the “level of inflammatory factor IL-1β in the brain of zebrafish” value (IL-1β; brain, AlCl3 model, FIG. 3C) was “reduce the level”, the “nerve inflammation of zebrafish caused by aluminum trichloride” value (IL-1β; overall conclusion of biochemical indexes) was “obviously improve” and the “level of inflammatory factor IL-1β in peripheral tissues of zebrafish” value (IL-1β; peripheral tissues, AlCl3 model, FIG. 3D) was “reduce the level”.
